Structures are written as SMILES. “And” between values parts separate entries of the source, which are not always exact repeats. Equal entries are not always repeated. Where two headings read alike, the source gives them in different places. Where a SMILES comes first, the peptide text is derived from it. [ ]: non-standard residue; d: D form. The star is where a group is joined. X2 = CO[C@@H]1NC(=O)CC[C@@H]1N*; X3 = O=C1CC[C@H](N*)[C@@H](O)N1; X1 = O=C1CC[C@H](N*)[C@H](O)N1; Valol = CC(C)[C@@H](CO)N*; Aib = CC(C)(N)C(=O)O

In series [1] the test system is SK-OV-3 (ovarian cancer) cells. Put plainly: MTT cell viability assay, SK-OV-3 cells. The settings on record: for IC50: read-out: IC50 against SK-OV-3 (Ovarian Cancer). As for the experimental part:
(§1) HCT-8 (colorectal carcinoma), and SK-OV-3 (ovarian cancer) cell lines were obtained from the American Type Culture Collection (ATCC; Manassas, VA, USA). The cells were cultured in RPMI-1640 medium (Cytiva, Marlborough, MA, USA) supplemented with 10% fetal bovine serum (FBS), 100 U/mL penicillin, and streptomycin, and incubated in a humidified atmosphere with 5% CO2 at 37 °C [23].
(§2) Cell viability was determined using the 3-(4,5-dimethylthiazol-2-yl)-2,5-diphenyltetrazolium bromide (MTT) colorimetric assay (Sigma Chemical Co., St. Louis, MO). Cells were seeded in 96-well plates and incubated at 37 °C for 24 h. Subsequently, cells were treated with isolated compounds at concentrations of 2, 20, and 100 μM for an additional 24 h. After treatment, 25 μL of MTT solution (5 mg/mL; Thermo Fisher Scientific, Waltham, MA, USA) was added to each well and incubated for 3 h. The resulting formazan crystals were dissolved in 100 μL of dimethyl sulfoxide, and the absorbance was measured at 550 nm using an ELx808 microplate reader (BioTek Instruments Inc., Winooski, VT, USA).

In series [2] the test system is HCT-8 (colon cancer) cells. Put plainly: MTT cell viability assay, HCT-8 cells. The note with it: for IC50: read-out: IC50 against HCT-8 (Colon Cancer). As for the experimental part: as §1, §2
Where [3] appears, read: MTT colorimetric assay, 96-well plates, treated at 2, 20, and 100 μM for 24 h, absorbance at 550 nm, mean ± standard deviation from triplicate experiments.

In the case of `CC(=O)N[C@@H](Cc1c[nH]c2ccccc12)C(=O)NCC(=O)N[C@@H](C)C(=O)NC(C)(C)C(=O)NC(C)(C)C(=O)N[C@@H](CCC(N)=O)C(=O)NC(C)(C)C(=O)NC(C)(C)C(=O)NC(C)(C)C(=O)N[C@@H](CO)C(=O)N[C@@H](CC(C)C)C(=O)NC(C)(C)C(=O)N1CCC[C@H]1C(=O)N[C@H](C(=O)NC(C)(C)C(=O)N[C@@H](CC(C)C)C(=O)N[C@@H](CCC(N)=O)C(=O)N[C@@H](CCC(N)=O)C(=O)N[C@H](CO)C(C)C)C(C)C` [Compound 2, bukhansantaibol B] (Ac-WGA[Aib][Aib]Q[Aib][Aib][Aib]SL[Aib]PV[Aib]LQQ-Valol), the IC50 in series [1] (setting [3]) is 13.8 ± 1 µM; in series [2] (setting [3]), 11.7 ± 0.8 µM.

For `CC[C@H](C)[C@H](NC(=O)C(C)(C)NC(=O)[C@@H](NC(=O)[C@@H]1CCCN1C(=O)C(C)(C)NC(=O)[C@H](CC(C)C)NC(=O)[C@H](CO)NC(=O)C(C)(C)NC(=O)C(C)(C)NC(=O)C(C)(C)NC(=O)[C@H](CCC(N)=O)NC(=O)C(C)(C)NC(=O)C(C)(C)NC(=O)[C@H](C)NC(=O)CNC(=O)[C@H](Cc1ccccc1)NC(C)=O)C(C)C)C(=O)N[C@@H](CCC(N)=O)C(=O)N[C@@H](CCC(N)=O)C(=O)N[C@H](CO)C(C)C` [Compound 3, bukhansantaibol C] (Ac-FGA[Aib][Aib]Q[Aib][Aib][Aib]SL[Aib]PV[Aib]IQQ-Valol), the IC50 in series [1] (setting [3]) worked out at 19.6 ± 0.1 µM; in series [2] (setting [3]), 18.5 ± 0.6 µM.

In the case of `CC[C@H](C)[C@H](NC(=O)C(C)(C)NC(=O)[C@@H](NC(=O)[C@@H]1CCCN1C(=O)C(C)(C)NC(=O)[C@H](CC(C)C)NC(=O)[C@H](C)NC(=O)C(C)(C)NC(=O)C(C)(C)NC(=O)C(C)(C)NC(=O)[C@H](CCC(N)=O)NC(=O)C(C)(C)NC(=O)C(C)(C)NC(=O)[C@H](C)NC(=O)CNC(=O)[C@H](Cc1c[nH]c2ccccc12)NC(C)=O)C(C)C)C(=O)N[C@@H](CCC(N)=O)C(=O)N[C@@H](CCC(N)=O)C(=O)N[C@H](CO)C(C)C` [Compound 4, bukhansantaibol D] (Ac-WGA[Aib][Aib]Q[Aib][Aib][Aib]AL[Aib]PV[Aib]IQQ-Valol), the IC50 is < 10 µM and 5.7 µM in series [1] (setting [3]); < 10 µM and 7.7 µM in series [2] (setting [3]).

On to `CC[C@H](C)[C@H](NC(=O)C(C)(C)NC(=O)[C@@H](NC(=O)[C@@H]1CCCN1C(=O)C(C)(C)NC(=O)[C@H](CC(C)C)NC(=O)[C@H](CO)NC(=O)C(C)(C)NC(=O)C(C)(C)NC(=O)C(C)(C)NC(=O)[C@H](CCC(N)=O)NC(=O)C(C)(C)NC(=O)C(C)(C)NC(=O)[C@H](C)NC(=O)CNC(=O)[C@H](Cc1ccccc1)NC(C)=O)C(C)C)C(=O)N[C@@H](CCC(=O)O)C(=O)N[C@@H](CCC(N)=O)C(=O)N[C@H](CO)C(C)C` [Compound 6, bukhansantaibol F] (Ac-FGA[Aib][Aib]Q[Aib][Aib][Aib]SL[Aib]PV[Aib]IEQ-Valol), for which the IC50 in series [1] (setting [3]) and in series [2] (setting [3]) was > 50 µM throughout.

Take `CC[C@H](C)[C@H](NC(=O)C(C)(C)NC(=O)[C@@H](NC(=O)[C@@H]1CCCN1C(=O)C(C)(C)NC(=O)[C@H](CC(C)C)NC(=O)[C@H](CO)NC(=O)C(C)(C)NC(=O)C(C)(C)NC(=O)C(C)(C)NC(=O)[C@H](CCC(N)=O)NC(=O)C(C)(C)NC(=O)C(C)(C)NC(=O)[C@H](C)NC(=O)CNC(=O)[C@H](Cc1c[nH]c2ccccc12)NC(C)=O)C(C)C)C(=O)N[C@H]1CCC(=O)N[C@H]1O` [Compound 7, bukhansantaibol G] (Ac-WGA[Aib][Aib]Q[Aib][Aib][Aib]SL[Aib]PV[Aib]I-X1): the half-maximal inhibitory concentration (IC50) in series [1] (setting [3]) and in series [2] (setting [3]) was > 50 µM each time.

Take `CC[C@H](C)[C@H](NC(=O)C(C)(C)NC(=O)[C@@H](NC(=O)[C@@H]1CCCN1C(=O)C(C)(C)NC(=O)[C@H](CC(C)C)NC(=O)[C@H](CO)NC(=O)C(C)(C)NC(=O)C(C)(C)NC(=O)C(C)(C)NC(=O)[C@H](CCC(N)=O)NC(=O)C(C)(C)NC(=O)C(C)(C)NC(=O)[C@H](C)NC(=O)CNC(=O)[C@H](Cc1c[nH]c2ccccc12)NC(C)=O)C(C)C)C(=O)N[C@H]1CCC(=O)N[C@@H]1O` [Compound 8, bukhansantaibol H] (Ac-WGA[Aib][Aib]Q[Aib][Aib][Aib]SL[Aib]PV[Aib]I-X3): the IC50 in series [1] (setting [3]) and in series [2] (setting [3]) was > 50 µM each time.

`CC[C@H](C)[C@H](NC(=O)C(C)(C)NC(=O)[C@@H](NC(=O)[C@@H]1CCCN1C(=O)C(C)(C)NC(=O)[C@H](CC(C)C)NC(=O)[C@H](CO)NC(=O)C(C)(C)NC(=O)C(C)(C)NC(=O)C(C)(C)NC(=O)[C@H](CCC(N)=O)NC(=O)C(C)(C)NC(=O)C(C)(C)NC(=O)[C@H](C)NC(=O)CNC(=O)[C@H](Cc1c[nH]c2ccccc12)NC(C)=O)C(C)C)C(=O)N[C@H]1CCC(=O)N[C@H]1OC` [Compound 9, bukhansantaibol I] (Ac-WGA[Aib][Aib]Q[Aib][Aib][Aib]SL[Aib]PV[Aib]I-X2): in series [1], the “cytotoxicity against SK-OV-3 cells, in words” value is “marked loss of cytotoxicity”. Besides, the half-inhibitory concentration (IC50) in series [1] (setting [3]) and in series [2] (setting [3]) was > 50 µM throughout. In series [2], the “cytotoxicity against HCT-8 cells, in words” value is on record as “marked loss of cytotoxicity”.

Consider `CC[C@H](C)[C@H](NC(=O)C(C)(C)NC(=O)[C@@H](NC(=O)[C@@H]1CCCN1C(=O)C(C)(C)NC(=O)[C@H](CC(C)C)NC(=O)[C@H](CO)NC(=O)C(C)(C)NC(=O)C(C)(C)NC(=O)C(C)(C)NC(=O)[C@H](CCC(N)=O)NC(=O)C(C)(C)NC(=O)C(C)(C)NC(=O)[C@H](C)NC(=O)CNC(=O)[C@H](Cc1ccccc1)NC(C)=O)C(C)C)C(=O)N[C@H]1CCC(=O)N[C@H]1OC` [Compound 10, bukhansantaibol J] (Ac-FGA[Aib][Aib]Q[Aib][Aib][Aib]SL[Aib]PV[Aib]I-X2), for which the “cytotoxicity against SK-OV-3 cells, in words” value in series [1] is “marked loss of cytotoxicity”. Also, the IC50 in series [1] (setting [3]) and in series [2] (setting [3]) was > 50 µM throughout. Also, the “cytotoxicity against HCT-8 cells, in words” value in series [2] is “marked loss of cytotoxicity”.

In the case of `CC[C@H](C)[C@H](NC(=O)C(C)(C)NC(C)=O)C(=O)NC(C)(C)C(=O)N[C@@H](Cc1ccc(O)cc1)C(=O)NC(C)(C)C(=O)N[C@@H](CC(C)C)C(=O)NC(C)(C)C(=O)N[C@@H](C)C(=O)NC(C)(C)C(=O)NC(C)(C)C=O` [Compound 11, bukhansantaibal A] (Ac-[Aib]I[Aib]Y[Aib]L[Aib]A[Aib][Aib]-aldehyde), the “cytotoxicity against SK-OV-3 cells, in words” value in series [1] is recorded as “inactivity”. The IC50 in series [1] (setting [3]) and in series [2] (setting [3]) was > 50 µM throughout. In addition, in series [2], the “cytotoxicity against HCT-8 cells, in words” value is “inactivity”.

Regarding `CC[C@H](C)[C@H](NC(=O)C(C)(C)NC(C)=O)C(=O)NC(C)(C)C(=O)N[C@@H](Cc1ccc(O)cc1)C(=O)NC(C)(C)C(=O)N[C@H](C(=O)NC(C)(C)C(=O)N[C@@H](C)C(=O)NC(C)(C)C(=O)NC(C)(C)C=O)[C@@H](C)CC` [Compound 12, bukhansantaibal B] (Ac-[Aib]I[Aib]Y[Aib]I[Aib]A[Aib][Aib]-aldehyde), the “cytotoxicity against SK-OV-3 cells, in words” value in series [1] is recorded as “inactivity”. The IC50 in series [1] (setting [3]) and in series [2] (setting [3]) was > 50 µM in each case. In addition, in series [2], the “cytotoxicity against HCT-8 cells, in words” value is recorded as “inactivity”.

Regarding `COc1cc([C@@H]2c3cc4c(cc3[C@@H](O[C@@H]3O[C@@H]5CO[C@@H](C)O[C@H]5[C@H](O)[C@H]3O)[C@H]3COC(=O)[C@H]23)OCO4)cc(OC)c1O` [Etoposide, reference compound], the IC50 in series [1] (Homo sapiens, SK-OV-3, 24 h) amounted to 37.3 ± 1.8 µM; in series [2] (Homo sapiens, HCT-8, 24 h), 33.7 ± 1.5 µM.
